Assay results published in US12715858B2, “Pyridazinone compounds” (INVENTISBIO CO., LTD., priority 2020, dated 2026).
≈ marks a conversion by molar mass, not a printed value. Read-outs that look alike come from different tables or passages of the source.

Assays:
Format in all cases: physicochemical
[1] = Slurry study of Form II at 50° C.; conditions: MeOH, ACN, acetone, EA and water at 50° C., after 1 day
Description: In addition, slurry study of Form II was performed in MeOH, ACN, acetone, EA and water at 50° C., respectively.

[2] = Solubility in water and bio-relevant media at 37° C. (HPLC of filtrate, pH of filtrate, XRPD of filter cake); conditions: for solubility at 24 h / solubility at 0.5 h / solubility at 2 h: thermodynamic from solid; for solubility at 24 h / Solubility (mg/mL) 0.5 h / Solubility (mg/mL) 2 h / Solubility (mg/mL) 24 h / solubility at 0.5 h / solubility at 2 h: 37° C.; for solubility at 24 h: read-out: Solubility (mg/mL) 24 h; for XRPD: filter cake obtained at 2 or 24 hours; for PH 0.5 h / PH 2 h / PH 24 h: pH of the filtrate; for solubility at 0.5 h: read-out: Solubility (mg/mL) 0.5 h; for solubility at 2 h: read-out: Solubility (mg/mL) 2 h
Description: Solubility of Form I of free acid, Form 1 and Form 2 of potassium salt, and Form A of sodium salt were tested in water and in bio-relevant media of Simulated Intestinal Fluid (SIF), Simulated Gastric Fluid (SGF), Fasted State Simulated Intestinal Fluid (FaSSIF), and Fed State Simulated Intestinal Fluid (FeSSIF) at 37° C. up to 24 hours. About 12 mg of the sample was weighed into sample vials and then 1.5 mL of each media was added to make suspensions respectively. All suspensions were shaken at 37° C. with 200 rpm.

[3] = Solid state stability at 60° C. and 40° C./75% RH for 7 days (HPLC purity, XRPD); conditions: for Purity at Day 7 (Area %) 40° C./75% RH: 7 days at 40° C./75% RH; for Purity at Day 7 (Area %) 40° C./75% RH / Purity at Day 7 (Area %) 60° C.: HPLC; for Purity at Day 7 (Area %) 60° C.: 7 days at 60° C.; for XRPD 40° C./75% RH: crystal form after 7 days at 40° C./75% RH; for XRPD 60° C.: crystal form after 7 days at 60° C.; for Initial Purity (Area %): day 0, HPLC
Description: HPLC analysis was performed with an Agilent HPLC 1260 series instrument.
Appropriate amount of free acid Form I, potassium salts Form 1 and Form 2, and sodium salt Form A were placed at 60° C. and 40° C./75% RH for 7 days. At 0 and 7 days, the samples were dissolved in diluent to prepare a solution of 0.5 mg/mL for HPLC purity analysis. Solid samples were analyzed by XRPD to check the crystal form.

[4] = Dynamic Vapor Sorption (DVS); conditions: for hygroscopicity: DVS; for crystal form of solid after the DVS study: XRPD after DVS; for water uptake / weight gain by DVS: at 80% RH (Form I: 0 to 80% RH), 25° C.
Description: Dynamic Vapor Sorption (DVS): Moisture sorption/desorption data was collected on a IGASorp DVS. The sample was placed into a tarred sample chamber and weighed automatically. The sample was dried at 50° C. until the % RH was less than 0.3% and cooled to 25° C. Set the instrument parameters as below.

[5] = Physical stability upon grinding and high humidity; conditions: for crystal form (XRPD) after grinding / crystallinity after grinding: ground manually, up to 5 min
Description: Physical stability of Form I was evaluated upon grinding and high humidity (RT/92.5% RH for 24 days). For mechanical treatment study, Form I (10 mg) was ground manually for 5 min, and the sample was analyzed by XRPD after grinding for 2 and 5 min, respectively.

[6] = Interconversion study of potassium salt Form 1 and Form 2 (slurry of equal amounts); conditions: slurry in MeOH/EA and acetone/water, RT or 50° C.
Description: Interconversion study were performed in MeOH/EA (1/9, RT or 50° C.) and acetone/water (20/1, RT or 50° C.). Equal amounts of Form 1 and Form 2 were slurried in specified solvents at different temperatures for certain time.

[7] = Water activity study of potassium salt Form 1 in MeOH/water; conditions: for Result (XRPD form): 24 h
Description: Form 1 was further tested to determine the influence of water on the crystalline form. Thus, 15 mg of potassium salt Form 1 was added into 0.3 mL of MeOH/water (with various amounts of water), and then the suspension was kept stirring at 25° C. for 24 h. The solid was collected by filtration and characterized by XRPD.

[8] = FeSSIF (Fed State Simulated Intestinal Fluid), 37 °C, fessif, FeSSIF
[9] = water, 37 °C, water, Water, LOQ is 0.5 μg/mL

SMILES: Cc1nn(-c2cc(Cl)c(Oc3cc(C(C)C)c(=O)[nH]n3)c(Cl)c2)c(=O)[nH]c1=O [Form II]
- form conversion in slurry [1]: completely converted to Form I

SMILES: Cc1nn(-c2cc(Cl)c(Oc3cc(C(C)C)c(=O)[nH]n3)c(Cl)c2)c(=O)[nH]c1=O [Free acid Form I, 2-(3,5-dichloro-4-((5-isopropyl-6-oxo-1,6-dihydropyridazin-3-yl)oxy)phenyl)-6-methyl-1,2,4-triazine-3,5(2H,4H)-dione]
- solubility at 24 h ([2]; FaSSIF (Fasted State Simulated Intestinal Fluid), FaSSIF): 0.00052 mg/mL (≈ 1.23 µM)
- Solubility (mg/mL) 0.5 h ([2]; FaSSIF, LOQ is 0.5 μg/mL): <LOQ
- Solubility (mg/mL) 2 h ([2]; FaSSIF, LOQ is 0.5 μg/mL): <LOQ
- Solubility (mg/mL) 0.5 h ([2]; SGF, LOQ is 0.5 μg/mL): <LOQ
- Solubility (mg/mL) 2 h ([2]; SGF, LOQ is 0.5 μg/mL): <LOQ
- Solubility (mg/mL) 24 h ([2]; SGF, LOQ is 0.5 μg/mL): <LOQ
- Solubility (mg/mL) 0.5 h ([2]; SIF, LOQ is 0.5 μg/mL): <LOQ
- Solubility (mg/mL) 2 h ([2]; SIF, LOQ is 0.5 μg/mL): <LOQ
- Solubility (mg/mL) 24 h ([2]; SIF, LOQ is 0.5 μg/mL): <LOQ
- Solubility (mg/mL) 0.5 h ([2]; Water, LOQ is 0.5 μg/mL): <LOQ
- Solubility (mg/mL) 2 h ([2]; Water, LOQ is 0.5 μg/mL): <LOQ
- Solubility (mg/mL) 24 h ([2]; Water, LOQ is 0.5 μg/mL): <LOQ
- XRPD ([2]; FaSSIF): unchanged
- XRPD ([2]; SGF): unchanged
- XRPD ([2]; SIF): unchanged
- XRPD ([2]; Water): unchanged
- PH 0.5 h ([2]; FaSSIF): 6.72
- PH 2 h ([2]; FaSSIF): 6.60
- PH 24 h ([2]; FaSSIF): 6.74
- PH 0.5 h ([2]; FeSSIF): 4.91
- PH 2 h ([2]; FeSSIF): 4.86
- PH 24 h ([2]; FeSSIF): 5.00
- PH 0.5 h ([2]; SGF): 1.17
- PH 2 h ([2]; SGF): 1.19
- PH 24 h ([2]; SGF): 1.16
- PH 0.5 h ([2]; SIF): 6.89
- PH 2 h ([2]; SIF): 6.86
- PH 24 h ([2]; SIF): 6.79
- PH 0.5 h ([2]; Water): 6.48
- PH 2 h ([2]; Water): 6.59
- PH 24 h ([2]; Water): 6.44
- solubility at 0.5 h ([2]; FeSSIF): 0.00056 mg/mL (≈ 1.32 µM)
- solubility at 2 h ([2]; FeSSIF): 0.001 mg/mL (≈ 2.36 µM)
- solubility at 24 h ([2]; FeSSIF): 0.0011 mg/mL (≈ 2.59 µM)
- Purity at Day 7 (Area %) 40° C./75% RH [3]: 96.42 Area %
- Purity at Day 7 (Area %) 60° C. [3]: 96.47 Area %
- XRPD 40° C./75% RH [3]: Unchanged
- XRPD 60° C. [3]: Unchanged
- Initial Purity (Area %) [3]: 96.45 Area %
- hygroscopicity [4]: slightly hygroscopic
- crystal form of solid after the DVS study [4]: remained unchanged
- water uptake / weight gain by DVS [4]: 0.9%
- form change upon high humidity ([5]; RT/92.5% RH for 24 days): no form change was observed
- crystal form (XRPD) after grinding [5]: remained unchanged
- crystallinity after grinding [5]: significantly decreased

SMILES: Cc1nn(-c2cc(Cl)c(Oc3cc(C(C)C)c(=O)[nH]n3)c(Cl)c2)c(=O)[n-]c1=O.[K+] [Potassium salt Form 1]
- solubility at 2 h ([2]; FaSSIF (Fasted State Simulated Intestinal Fluid), 37 °C, fassif, FaSSIF, LOQ is 0.5 μg/mL): 0.013 mg/mL
- solubility at 24 h ([2]; FaSSIF (Fasted State Simulated Intestinal Fluid), 37 °C, fassif, FaSSIF): 0.0064 mg/mL
- Solubility (mg/mL) 0.5 h ([2]; FaSSIF, LOQ is 0.5 μg/mL): <LOQ
- solubility at 2 h [2, 8]: 0.0089 mg/mL
- solubility at 24 h [2, 8]: 0.013 mg/mL
- Solubility (mg/mL) 0.5 h ([2]; FeSSIF): 0.0017 mg/mL
- Solubility (mg/mL) 0.5 h ([2]; SGF, LOQ is 0.5 μg/mL): <LOQ
- Solubility (mg/mL) 2 h ([2]; SGF, LOQ is 0.5 μg/mL): <LOQ
- Solubility (mg/mL) 24 h ([2]; SGF, LOQ is 0.5 μg/mL): <LOQ
- Solubility (mg/mL) 0.5 h ([2]; SIF, LOQ is 0.5 μg/mL): <LOQ
- Solubility (mg/mL) 2 h ([2]; SIF, LOQ is 0.5 μg/mL): <LOQ
- Solubility (mg/mL) 24 h ([2]; SIF, LOQ is 0.5 μg/mL): <LOQ
- XRPD ([2]; FaSSIF): Free acid
- XRPD ([2]; FeSSIF): Free acid
- XRPD ([2]; SGF): Free acid
- XRPD ([2]; SIF): Free acid
- XRPD ([2]; Water): Free acid
- PH 0.5 h ([2]; FaSSIF): 7.03
- PH 2 h ([2]; FaSSIF): 7.36
- PH 24 h ([2]; FaSSIF): 8.29
- PH 0.5 h ([2]; FeSSIF): 5.06
- PH 2 h ([2]; FeSSIF): 5.21
- PH 24 h ([2]; FeSSIF): 5.24
- PH 0.5 h ([2]; SGF): 1.18
- PH 2 h ([2]; SGF): 1.26
- PH 24 h ([2]; SGF): 1.25
- PH 0.5 h ([2]; SIF): 7.52
- PH 2 h ([2]; SIF): 7.52
- PH 24 h ([2]; SIF): 7.44
- PH 0.5 h ([2]; Water): 11.02
- PH 2 h ([2]; Water): 11.00
- PH 24 h ([2]; Water): 10.57
- solubility at 0.5 h [2, 9]: 5.79 mg/mL
- solubility at 2 h [2, 9]: 5.28 mg/mL
- solubility at 24 h [2, 9]: 5.15 mg/mL
- chemical and physical stability ([3]; 40° C./75% RH and 60° C. for 7 days): chemically and physically stable
- Purity at Day 7 (Area %) 40° C./75% RH [3]: 99.29 Area %
- Purity at Day 7 (Area %) 60° C. [3]: 99.50 Area %
- XRPD 40° C./75% RH [3]: Unchanged
- XRPD 60° C. [3]: Unchanged
- Initial Purity (Area %) [3]: 99.23 Area %
- DVS Water % at 80% RH ([4]; 80% RH, forms of potassium salt of Compound 1): 1.8%
- hygroscopicity [4]: slight hygroscopic
- crystal form of solid after the DVS study [4]: remained unchanged
- water uptake / weight gain by DVS [4]: 1.8%
- crystal form (XRPD) after grinding [5]: remained unchanged
- crystallinity after grinding [5]: decreased
- relative stability of Form 1 and Form 2 [6]: more stable in non-aqueous system
- Result (XRPD form) ([7]; MeOH/water (80/20), Aw 0.3598, 25° C.): Form 1 + 2
- Result (XRPD form) ([7]; MeOH/water (86/14), Aw 0.2679, 25° C.): Form 1 + 2
- Result (XRPD form) ([7]; MeOH/water (90/10), Aw 0.1998, 25° C.): Form 1 + 2
- Result (XRPD form) ([7]; MeOH/water (95/5), Aw 0.1058, 25° C.): Form 2
- Result (XRPD form) ([7]; MeOH/water (97/3), Aw 0.065, 25° C.): Form 2
- Result (XRPD form) ([7]; MeOH/water (99/1), Aw 0.021, 25° C.): Form 1 + 2
- Result (XRPD form) ([7]; MeOH/water (99.5/0.5), Aw 0.010, 25° C.): Form 1
- Result (XRPD form) ([7]; MeOH/water (100/0), Aw 0, 25° C.): Form 1
- water activity at which Form 1 has the tendency to convert to Form 2 ([7]; after 24 h, 0.5% of water content): > 0.01
